Paper PMC4556614 (PLoS ONE, 2015)

What was measured:
[1] = target: T1, OCT2 (Homo sapiens, UniProt O15244); assay: Inhibition of OCT2-mediated [3H]MPP+ uptake in HEK-OCT2 cells
Experimental: (§1) For the transport assays HEK cell lines stably transfected with human OCT2 (HEK-OCT2) or the vector only (HEK-VC) were used. The HEK-OCT2 cell line was established and characterized previously. HEK-OCT2 and HEK-VC cells were seeded in poly-D-lysine (Sigma Aldrich, Taufkirchen, Germany) coated 48-well-plates at a density of 1.2 x 10^5 cells/well. […] Uptake was stopped by washing the cells three times with ice-cold uptake buffer. Afterwards, cells were lysed with 5 mM Tris buffer (pH 7.3) containing 0.1% Triton X-100. The intracellular accumulation of radioactivity was determined by liquid scintillation counting (PerkinElmer, Rodgau-Jügesheim, Germany) and protein concentration of each lysate was measured with bicinchonic acid assay (BCA Protein Assay Kit, Thermo Fisher Scientific, Waltham, MA, USA). We performed two to eight experiments each on at least two separate days, i.e., n = 4–16.

[2] = target: T1, OCT2; assay: in vitro
Experimental: as §1
Experimental half-maximal inhibitory concentrations (IC50 values) were measured as the substrate uptake in the presence of increasing concentrations of test drugs. These experiments were performed as described above (three experiments each on two separate days, i.e., n = 6). IC50 values were calculated with GraphPad Prism 5.0 (GraphPad Software, San Diego, CA, USA). IC50 was estimated by a sigmoidal inhibition model and was fit to the equation V = V 0 / (1 + (I / IC50 ) ^n ) by nonlinear regression. V is the net uptake in the presence of the inhibitor, V 0 is the net uptake in the absence of the inhibitor, I is the concentration of the inhibitor and n is the slope.

[3] = test drug 20 µM, MPP+ 50 μM, 3 min, net uptake HEK-OCT2 minus HEK-VC
[4] = test drug 200 µM, MPP+ 50 μM, 3 min, net uptake HEK-OCT2 minus HEK-VC
[5] = human, pH 7.3, probe [3H]MPP+, 50 µM
[6] = human, pH 7.3, probe [14C]metformin, 1000 µM, % Inhibition of OCT2-dependent MF uptake at 20 µM (mean ± SEM), test drug 20 µM, metformin 1000 μM, 3 min, net uptake HEK-OCT2 minus HEK-VC
[7] = human, pH 7.3, probe [14C]metformin, 1000 µM, % Inhibition of OCT2-dependent MF uptake at 200 µM (mean ± SEM), test drug 200 µM, metformin 1000 μM, 3 min, net uptake HEK-OCT2 minus HEK-VC

T1 sequence (O15244 whole entry): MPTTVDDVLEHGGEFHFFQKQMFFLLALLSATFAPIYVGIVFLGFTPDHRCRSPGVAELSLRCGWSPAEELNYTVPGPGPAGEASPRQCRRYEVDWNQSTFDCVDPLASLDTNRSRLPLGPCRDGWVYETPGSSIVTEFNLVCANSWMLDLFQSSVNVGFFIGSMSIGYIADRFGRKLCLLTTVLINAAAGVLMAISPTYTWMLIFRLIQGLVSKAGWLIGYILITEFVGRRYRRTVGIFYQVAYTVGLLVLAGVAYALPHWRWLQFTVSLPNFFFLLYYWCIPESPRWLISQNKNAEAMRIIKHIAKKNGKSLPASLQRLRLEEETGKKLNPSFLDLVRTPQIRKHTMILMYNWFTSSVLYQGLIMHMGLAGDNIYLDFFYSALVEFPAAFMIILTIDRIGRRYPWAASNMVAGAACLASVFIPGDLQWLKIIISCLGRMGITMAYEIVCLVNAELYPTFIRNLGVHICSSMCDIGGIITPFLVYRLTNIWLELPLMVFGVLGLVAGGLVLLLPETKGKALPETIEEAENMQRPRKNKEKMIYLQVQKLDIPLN

Row | SMILES | % Inhibition of OCT2-dependent MPP+ uptake at 20 µM (mean ± SEM) [1, 3] | % Inhibition of OCT2-dependent MPP+ uptake at 200 µM (mean ± SEM) [1, 4] | % Inhibition of OCT2-dependent MF uptake at 20 µM (mean ± SEM) ([2]; human, pH 7.3) | % Inhibition of OCT2-dependent MF uptake at 200 µM (mean ± SEM) ([2]; human, pH 7.3) | other results
1 | C[C@H]1c2cccc(O)c2C(=O)C2=C(O)[C@]3(O)C(=O)C(C(N)=O)=C(O)[C@@H](N(C)C)[C@@H]3[C@@H](O)[C@@H]21 [Doxycycline] | -12.9 ± 13.1% | -16.6 ± 11.7% | -21.8 ± 1.9 | 1.9 ± 9.1 | –
2 | C[C@]12CCC(=O)C=C1[C@@H]1C[C@@H]1[C@H]1[C@@H]3[C@@H]4C[C@@H]4[C@@]4(CCC(=O)O4)[C@@]3(C)CC[C@@H]12 [Drospirenone] | – | – | – | – | inhibition at 3 min, 20 µM [1, 5]: 0%; inhibition at 3 min, 200 µM [1, 5]: 42.6 ± 1.4%; inhibition at 3 min, 20 µM [2, 6]: > 85%; inhibition at 3 min, 200 µM [2, 7]: 99.1 ± 0.7%; % Inhibition of OCT2-dependent MF uptake at 20 µM (mean ± SEM) ([2]; test drug 20 µM, metformin 1000 μM, 3 min, net uptake HEK-OCT2 minus HEK-VC): 88.0 ± 7.3%
3 | CNCC[C@H](Oc1cccc2ccccc12)c1cccs1 [Duloxetine] | – | – | 76.5 ± 0.9 | 98.3 ± 0.2 | % Inhibition of OCT2-dependent MPP+ uptake at 20 µM (mean ± SEM) ([1]; human, pH 7.3): 23.3 ± 6.0; % Inhibition of OCT2-dependent MPP+ uptake at 200 µM (mean ± SEM) ([1]; human, pH 7.3): 86.4 ± 5.1
4 | CCOC(=O)[C@H](CCc1ccccc1)N[C@@H](C)C(=O)N1CCC[C@H]1C(=O)O [Enalapril] | 7.1 ± 7.4% | 20.2 ± 5.6% | 7.5 ± 2.3 | 34.2 ± 4.5 | –
5 | CN(C)CCC[C@@]1(c2ccc(F)cc2)OCc2cc(C#N)ccc21 [Escitalopram] | -26.3 ± 7.9% | 26.0 ± 10.1% | 62.6 ± 9.2 | 93.8 ± 3.6 | –
6 | C[C@]12CC[C@@H]3c4ccc(O)cc4CC[C@H]3[C@@H]1CC[C@@H]2O [Estradiol] | 10.6 ± 4.2% | 19.0 ± 6.5% | 57.9 ± 5.4 | 66.6 ± 2.1 | –
7 | C#C[C@]1(O)CC[C@H]2[C@@H]3CCc4cc(O)ccc4[C@H]3CC[C@@]21C [Ethinylestradiol] | 14.0 ± 8.8% | 46.8 ± 6.3% | 31.8 ± 8.1 | 62.2 ± 13.1 | –
8 | Cc1ccc(-c2ncc(Cl)cc2-c2ccc(S(C)(=O)=O)cc2)cn1 [Etoricoxib] | 2.3 ± 4.0% | 72.4 ± 2.2% | 64.1 ± 6.8 | 99.2 ± 2.7 | –
9 | O=C1[C@H](CC[C@H](O)c2ccc(F)cc2)[C@@H](c2ccc(O)cc2)N1c1ccc(F)cc1 [Ezetimibe] | – | – | – | – | inhibition at 3 min, 20 µM [1, 5]: -12.6 ± 12.4%; inhibition at 3 min, 200 µM [1, 5]: -13.2 ± 11.5%; inhibition at 3 min, 20 µM [2, 6]: -6.8 ± 9.7%; inhibition at 3 min, 200 µM [2, 7]: 0.2 ± 10%
10 | CCOC(=O)C1=C(C)NC(C)=C(C(=O)OC)C1c1cccc(Cl)c1Cl (stereo not drawn) [Felodipine] | -8.8 ± 12.0% | -16.8 ± 10.8% | 4.9 ± 6.1 | 15.9 ± 12.1 | –
11 | CC(C)OC(=O)C(C)(C)Oc1ccc(C(=O)c2ccc(Cl)cc2)cc1 [Fenofibrate] | 12.8 ± 5.0% | 32.0 ± 5.7% | 43.0 ± 9.9 | 73.4 ± 4.7 | –
12 | CN1C(=O)CN=C(c2ccccc2F)c2cc([N+](=O)[O-])ccc21 [Flunitrazepam] | 5.1 ± 8.4% | 57.5 ± 6.6% | 74.1 ± 3.1 | 92.9 ± 0.9 | –
13 | CNCCC(Oc1ccc(C(F)(F)F)cc1)c1ccccc1 (stereo not drawn) [Fluoxetine] | 20.2 ± 3.5% | 91.8 ± 2.9% | 79.0 ± 0.9 | 98.5 ± 1.2 | –
14 | OCCN1CCN(CCCN2c3ccccc3Sc3ccc(C(F)(F)F)cc32)CC1 [Fluphenazine] | 39.3 ± 7.0% | 94.3 ± 3.3% | – | 99.3 ± 0.4 | –
15 | CC(C)n1c(/C=C/C(O)CC(O)CC(=O)O)c(-c2ccc(F)cc2)c2ccccc21 (stereo not drawn) [Fluvastatin] | -10.1 ± 6.1% | 5.8 ± 9.1% | -21.1 ± 10.3 | 32.5 ± 8.1 | –
16 | NCC1(CC(=O)O)CCCCC1 [Gabapentin] | – | – | 9.1 ± 8.2 | 37.6 ± 4.2 | % Inhibition of OCT2-dependent MPP+ uptake at 20 µM (mean ± SEM) ([1]; human, pH 7.3): -8.4 ± 9.6; % Inhibition of OCT2-dependent MPP+ uptake at 200 µM (mean ± SEM) ([1]; human, pH 7.3): -12.5 ± 9.4
17 | COc1ccc2c3c1O[C@H]1C[C@@H](O)C=C[C@@]31CCN(C)C2 [Galantamine] | -11.7 ± 9.4% | 12.3 ± 7.0% | 51.5 ± 2.8 | 92.5 ± 1.2 | –
18 | COc1ccc(Cl)cc1C(=O)NCCc1ccc(S(=O)(=O)NC(=O)NC2CCCCC2)cc1 [Glibenclamide] | -27.7 ± 5.0% | -31.1 ± 1.7% | 38.7 ± 11.9 | 87.9 ± 3.2 | –
19 | CCC1=C(C)CN(C(=O)NCCc2ccc(S(=O)(=O)NC(=O)N[C@H]3CC[C@H](C)CC3)cc2)C1=O [Glimepiride] | 31.1 ± 7.6% | 53.8 ± 15.2% | 66.8 ± 2.9 | 65.6 ± 4.6 | –
20 | O=C(CCCN1CCC(O)(c2ccc(Cl)cc2)CC1)c1ccc(F)cc1 [Haloperidol] | -11.2 ± 5.0% | -10.6 ± 5.1% | 6.4 ± 8.9 | 66.9 ± 5.3 | –
21 | NS(=O)(=O)c1cc2c(cc1Cl)NCNS2(=O)=O [Hydrochlorothiazide] | -55.4 ± 10.2% | -36.6 ± 7.4% | -34.7 ± 16.9 | -38.6 ± 8.5 | –
22 | CC(C)Cc1ccc(C(C)C(=O)O)cc1 (stereo not drawn) [Ibuprofen] | -5.8 ± 8.0% | -0.3 ± 7.5% | 23.4 ± 6.7 | 29.6 ± 4.1 | –
23 | CCCCC1=NC2(CCCC2)C(=O)N1Cc1ccc(-c2ccccc2-c2nnn[nH]2)cc1 [Irbesartan] | -18.9 ± 12.4% | -50.7 ± 14.1% | -16.2 ± 14.4 | -14.2 ± 17.8 | –
24 | O=[N+]([O-])O[C@H]1CO[C@H]2[C@@H]1OC[C@H]2O[N+](=O)[O-] [Isosorbide dinitrate] | – | – | – | – | inhibition at 3 min, 20 µM ([1]; human, pH 7.3): -20.4 ± 5%; inhibition at 3 min, 200 µM ([1]; human, pH 7.3): -82.4 ± 8%; inhibition at 3 min, 20 µM ([2]; human, pH 7.3): -19.5 ± 6.9%; inhibition at 3 min, 200 µM ([2]; human, pH 7.3): 21.7 ± 4.4%
25 | COC(=O)C1=C(C)NC(C)=C(C(=O)OC(C)(C)CN(C)CCC(c2ccccc2)c2ccccc2)C1c1cccc([N+](=O)[O-])c1 (stereo not drawn) [Lercanidipine] | – | – | – | – | inhibition at 3 min, 20 µM [1, 5]: -13.3 ± 8.6%; inhibition at 3 min, 200 µM [1, 5]: -9.3 ± 3.6%; inhibition at 3 min, 20 µM [2, 6]: 7.8 ± 3.8%; inhibition at 3 min, 200 µM [2, 7]: -20.4 ± 11.1%
26 | N[C@@H](Cc1ccc(O)c(O)c1)C(=O)O [Levodopa] | -24.6 ± 0.5% | 11.8 ± 1.4% | -9.3 ± 6.8 | 67.3 ± 2.6 | –
27 | N[C@@H](Cc1cc(I)c(Oc2cc(I)c(O)c(I)c2)c(I)c1)C(=O)O [Levothyroxine] | – | – | – | – | inhibition at 3 min, 20 µM [1, 5]: 3.6 ± 4.1%; inhibition at 3 min, 200 µM [1, 5]: -3.3 ± 10.3%; inhibition at 3 min, 20 µM [2, 6]: 0.8 ± 9.6%; inhibition at 3 min, 200 µM [2, 7]: 14.3 ± 15.2%
